System: primordial germ cells in gonads from female mouse fetuses at 12.5 dpc
Test: In vitro organ culture of gonad (secondary follicle formation)
Format: cell-based
Conditions: (vii) FBS/1 μM MPP group, 1 μM day 5-11
Protocol: For the medium of the organ culture, the basal medium supplemented with FBS (Gibco, Thermo Fisher Scientific Inc.), SPS (SAGE In vitro Fertilization), the estrogen receptor antagonist, 7α, 17β-[9-([4,4,5,5,5-pentafluoropentyl]sulfinyl)nonyl]estra-1,3,5(10)-triene-3,17-diol; ICI 182,780 (ICI; Tocris Bioscience), 4-hydroxytamoxifen (Sigma-Aldrich), and MPP (Methylpiperidino pyrazole; Cayman Chemical) were added at the indicated concentrations for each experimental group below. The α-MEM medium (Gibco, Thermo Fisher Scientific Inc.) supplemented with 1.5 mM 2-O-α-d glucopyranosyl-1-ascorbic acid (Tokyo Chemical Industry), 10 units/mL penicillin, and 10 μg/mL streptomycin (Sigma-Aldrich) was used as a basal medium (referred to the basal medium hereafter as α-MEM).
ICI 182,780 and 4-hydroxytamoxifen was prepared as follows. ICI 182,780 and 4-hydroxytamoxifen was diluted to 100 mM using DMSO, and cryopreserved stock was prepared. MPP was diluted to 10 mM using DMSO, and cryopreserved stock was prepared. 1 mM solutions of ICI 182, 780 and 4-hydroxytamoxifen were prepared by diluting the 100 mM stocks 100-fold with DMSO just before use and were added to the medium at the indicated final concentrations for each experimental group. MPP was added to the medium at 1 μM as the final concentration just before use.
The gonads for the organ culture were collected with mesonephros or without mesonephros from female mouse fetuses at 12.5 dpc (FIG. 1a). 2.2 ml of the medium was added to each 6-well culture plate used for the organ culture. Transwell®-COL membrane (3.0-μm pore size, 24-mm diameter; Corning) was put on each well of the 6-well culture plate. The gonads were transferred on the membrane and were cultured for 17 days at 37° C. under 5% CO2 and 95% air. Approximately half of the medium in each well was replaced with fresh medium every other day. In the example in which the gonad was cultured with mesonephros, mesonephros was removed from the gonad at day 7 of the organ culture.
The in vitro organ culture of the gonads was performed according to the following conditions described below. The gonads were cultured for total 17 days in each conditions below (FIG. 2):
(i) culture for the complete 17 days period in 10% FBS containing α-MEM (α-MEM+FBS; FBS group);
(ii) culture for the complete 17 days period in 10% SPS containing α-MEM (α-MEM+SPS; SPS group);
(iii) culture for the complete 17 days period in 10% KSR containing α-MEM (α-MEM+KSR; KSR group);
(iv) culture in 10% FBS containing α-MEM for 4 days with a shift to 10% SPS containing α-MEM for 6 days from day 5 and a shift to 10% FBS containing α-MEM until day 17 from day 11 (αMEM+FBS/SPS; FBS/SPS group);
(v) culture in 10% FBS containing α-MEM for 4 days with a shift to 10% FBS containing α-MEM with the addition of 10 nM, 100 nM, 1 μM, 5 μM, or 10 μM (final concentration) ICI for 6 days from day 5 and a shift to 10% FBS containing α-MEM until day […] (αMEM+FBS/10 nM ICI; FBS/10 nM ICI group, αMEM+FBS/100 nM ICI; FBS/100 nM ICI group, αMEM+FBS/1 μM ICI; FBS/1 μM ICI group, αMEM+FBS/5 μM ICI; FBS/5 μM ICI group, or αMEM+FBS/10 μM ICI; FBS/10 μM ICI group);
(vi) culture in 10% FBS containing α-MEM for 4 days with a shift to 10% FBS containing α-MEM with the addition of 1 μM (final concentration) 4-hydroxytamoxifen for 6 days from day 5 and a shift to 10% FBS containing α-MEM until day 17 from day 11 (αMEM+FBS/1 μM Tamoxifen; FBS/1 μM Tamoxifen group);
(vii) culture in 10% FBS containing α-MEM for 4 days with a shift to 10% FBS containing α-MEM with the addition of 1 μM (final concentration) MPP for 6 days from day 5 and a shift to 10% FBS containing α-MEM until day 17 from day 11 (αMEM+FBS/1 μM MPP; FBS/1 μM MPP group).
Vitrification and warming were conducted as follows by reference to Wang, X. et al., “Successful in vitro culture of pre-antral follicles derived from vitrified murine ovarian tissue: oocyte maturation, fertilization, and live births.” Reproduction 141, 183-191 (2011). […]

## Cc1c(-c2ccc(O)cc2)nn(-c2ccc(O)cc2)c1-c1ccc(OCCN2CCCCC2)cc1 [MPP, 4-[1-(4-hydroxyphenyl)-4-methyl-5-[4-[2-(1-piperidinyl)ethoxy]phenyl]-1H-pyrazol-3-yl]-phenol]
  secondary follicles collected from one ovary: 15

Reference: patent US11773368B2, “Culture method for differentiating primordial germ cells into functionally mature oocytes” (TOKYO UNIVERSITY OF AGRICULTURE, priority 2015, dated 2023)
